# Results: patent US12071453B2, “Neuroactive steroids, compositions, and uses thereof” (Sage Therapeutics, Inc., priority 2013, dated 2024)
# Experiments:
# [1] = molecular target: T1, GABAA receptors composed of the α4β3δ subunits (GABRA4/GABRB3/GABRD) (Homo sapiens, UniProt P28472+P48169); experiment: Two Electrode Voltage Clamp (TEVC), GABA receptor potentiation in Xenopus laevis oocytes, α4β3δ; format: cell-based; conditions: 10 μM compound, 3 μM GABA, read-out: GABA (α4β3δ) % efficacy at 10 μM
# T1 construct: expressed in transfected cells; host or cells: Xenopus laevis oocytes, injected (ratio 5:1:5)
# Procedure: (§1) The Two Electrode Voltage Clamp (TEVC) technique was used to investigate the effects of compounds at a concentration of 10 μM on GABAA receptors composed of the α1β2γ2 or α4β3δ subunits expressed in oocytes from the Xenopus laevis. GABA-evoked currents were recorded from oocytes that expressed the GABA receptors and the modulatory effects of the test items on these currents were investigated.
# (§2) Ovaries were harvested from Xenopus laevis females that had been deeply anesthetized by cooling at 4° C. and immersion in Tricaine methanesulfonate (MS-222 at a concentration of 150 mg/L) in sodium bicarbonate (300 mg/L). Once anesthetized the animal was decapitated and pithed following the rules of animal rights from the Geneva canton. A small piece of ovary was isolated for immediate preparation while the remaining part was placed at 4° C. in a sterile Barth solution containing in mM NaCl 88, KCl 1, NaHCO3 2.4, HEPES 10, MgSO4·7H2O 0.82, Ca(NO3)2·4H2O 0.33, CaCl2·6H2O 0.41, at pH 7.4, and supplemented with 20 μg/ml of kanamycin, 100 unit/ml penicillin and 100 μg/ml streptomycin. All recordings were performed at 18° C. and cells were super-fused with medium containing in mM: NaCl 82.5, KCl 2.5, HEPES 5, CaCl2·2H2O, ·6H2O 1, pH 7.4.
# (§3) Plasmids containing the RNAs of the human GABRA1/GABRB2/GABRG2 and GABRA4/GABRB3/GABRD genes were injected into oocytes using a proprietary automated injection device (Hogg el al., J. Neurosci. Methods, (2008) 169: 65-75). These genes encode for the α1β2γ2 and α4β3δ GABAA subunits respectively. Receptor expression was assessed using electrophysiology at least two days later. The ratio of RNA injection for α1β2γ2 was 1:1:1 and for α4β3δ was 5:1:5. Electrophysiological recordings were made using an automated process equipped with standard TEVC and data were captured and analyzed using a proprietary data acquisition and analysis software running under Matlab (Mathworks Inc.). The membrane potential of the oocytes was maintained at −80 mV throughout the experiments. To explore the effects of proprietary compounds, currents were evoked by applying 10 μM (α1β2γ2) or 3 μM (α4β3δ) GABA for 30 s. These concentrations approximated the EC50 concentration of GABA at each receptor subtype. Oocytes were then re-exposed to GABA again for 30 s. 15 s after beginning the GABA application, test article was co-applied at a concentration of 10 μM for 15 s. Potentiation of the peak current was assessed. Data was filtered at 10 Hz, captured at 100 Hz and analyzed using proprietary data acquisition and analysis software running under Matlab (Mathworks Inc.). For statistical analysis values were computed either with Excel (Microsoft) or Matlab (mathworks Inc.). To obtain mean measurements with standard deviations, all experiments were carried out using at least three cells.
# [2] = molecular target: T2, GABAA receptors composed of the α1β2γ2 subunits (GABRA1/GABRB2/GABRG2) (Homo sapiens, UniProt P14867+P47870); experiment: Two Electrode Voltage Clamp (TEVC), GABA receptor potentiation in Xenopus laevis oocytes, α1β2γ2; format: cell-based; conditions: 10 μM compound, 10 μM GABA, read-out: GABA (α1β2γ2) % efficacy at 10 μM
# T2 construct: expressed in transfected cells; host or cells: Xenopus laevis oocytes, injected (ratio 1:1:1)
# Procedure: as §1, §2, §3
# [3] = molecular target: [35S]-TBPS binding in rat brain cortical membranes; experiment: Steroid inhibition of [35S]-TBPS binding, rat brain cortical membranes; conditions: 3 nM [35S]-TBPS, in the presence of 5 μM GABA, read-out: 35S-TBPS Radioligand Displacement (IC50)
# Procedure: TBPS binding assays using rat brain cortical membranes in the presence of 5 μM GABA has been described (Gee et al, J. Pharmacol. Exp. Ther. 1987, 241, 346-353; Hawkinson et al, Mol. Pharmacol. 1994, 46, 977-985; Lewin, A. H et al., Mol. Pharmacol. 1989, 35, 189-194).
# Briefly, cortices are rapidly removed following decapitation of carbon dioxide-anesthetized Sprague-Dawley rats (200-250 g). The cortices are homogenized in 10 volumes of ice-cold 0.32 M sucrose using a glass/teflon homogenizer and centrifuged at 1500×g for 10 min at 4° C. The resultant supernatants are centrifuged at 10,000×g for 20 min at 4° C. to obtain the P2 pellets. The P2 pellets are resuspended in 200 mM NaCl/50 mM Na—K phosphate pH 7.4 buffer and centrifuged at 10,000×g for 10 min at 4° C. This washing procedure is repeated twice and the pellets are resuspended in 10 volumes of buffer. Aliquots (100 μL) of the membrane suspensions are incubated with 3 nM [^35S]-TBPS and 5 μL aliquots of test drug dissolved in dimethyl sulfoxide (DMSO) (final 0.5%) in the presence of 5 μM GABA. The incubation is brought to a final volume of 1.0 mL with buffer. Nonspecific binding is determined in the presence of 2 μM unlabeled TBPS and ranged from 15 to 25%. Following a 90 min incubation at room temp, the assays are terminated by filtration through glass fiber filters (Schleicher and Schuell No. 32) using a cell harvester (Brandel) and rinsed three times with ice-cold buffer. Filter bound radioactivity is measured by liquid scintillation spectrometry. Non-linear curve fitting of the overall data for each drug averaged for each concentration is done using Prism (GraphPad). […] The concentration of test compound producing 50% inhibition (IC50) of specific binding and the maximal extent of inhibition (Imax) are determined for the individual experiments with the same model used for the overall data and then the mean±SEM.s of the individual experiments are calculated.
# Various compounds are or can be screened to determine their potential as modulators of [^35S]-TBPS binding in vitro. These assays are or can be performed in accordance with the above discussed procedures.
# T1 sequence (P48169 36-554): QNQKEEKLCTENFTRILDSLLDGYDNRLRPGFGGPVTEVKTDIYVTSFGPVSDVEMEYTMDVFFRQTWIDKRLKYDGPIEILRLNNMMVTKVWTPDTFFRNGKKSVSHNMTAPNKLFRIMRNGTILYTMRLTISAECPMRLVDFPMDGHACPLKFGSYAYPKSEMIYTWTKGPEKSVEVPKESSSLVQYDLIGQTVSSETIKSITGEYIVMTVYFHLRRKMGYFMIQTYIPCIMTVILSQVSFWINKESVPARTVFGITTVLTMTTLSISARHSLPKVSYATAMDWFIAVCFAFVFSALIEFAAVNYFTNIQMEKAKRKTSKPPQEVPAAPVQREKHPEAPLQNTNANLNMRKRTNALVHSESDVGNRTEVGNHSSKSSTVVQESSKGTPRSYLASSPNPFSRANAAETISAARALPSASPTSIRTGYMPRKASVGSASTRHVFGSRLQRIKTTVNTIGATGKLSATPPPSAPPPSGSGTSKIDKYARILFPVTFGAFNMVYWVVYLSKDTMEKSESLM
# T1 sequence (P28472 26-473): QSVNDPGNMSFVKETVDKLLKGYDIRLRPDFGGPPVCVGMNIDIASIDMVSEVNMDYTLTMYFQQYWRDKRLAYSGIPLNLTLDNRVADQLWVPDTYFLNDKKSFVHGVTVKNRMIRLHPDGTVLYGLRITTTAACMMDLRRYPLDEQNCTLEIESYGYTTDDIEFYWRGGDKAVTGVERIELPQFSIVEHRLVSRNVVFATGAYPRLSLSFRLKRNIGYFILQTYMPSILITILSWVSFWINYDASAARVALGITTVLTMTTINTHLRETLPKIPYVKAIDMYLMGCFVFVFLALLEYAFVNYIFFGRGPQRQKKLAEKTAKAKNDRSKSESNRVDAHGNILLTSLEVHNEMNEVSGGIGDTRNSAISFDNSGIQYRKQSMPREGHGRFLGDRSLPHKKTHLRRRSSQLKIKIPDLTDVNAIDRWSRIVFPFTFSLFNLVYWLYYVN
# T1 sequence (O14764 25-452 partner): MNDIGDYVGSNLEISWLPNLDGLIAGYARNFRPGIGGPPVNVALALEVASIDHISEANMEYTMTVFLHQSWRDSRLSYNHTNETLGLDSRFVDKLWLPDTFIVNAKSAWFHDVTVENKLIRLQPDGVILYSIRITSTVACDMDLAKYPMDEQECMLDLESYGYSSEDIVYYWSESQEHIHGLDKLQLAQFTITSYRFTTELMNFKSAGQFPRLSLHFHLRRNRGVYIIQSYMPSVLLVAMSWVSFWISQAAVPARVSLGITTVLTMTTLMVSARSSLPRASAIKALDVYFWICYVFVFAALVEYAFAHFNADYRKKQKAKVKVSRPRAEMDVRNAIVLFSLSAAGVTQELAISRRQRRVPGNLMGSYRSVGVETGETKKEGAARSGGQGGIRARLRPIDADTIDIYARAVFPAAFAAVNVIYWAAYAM
# T2 sequence (P14867 28-456): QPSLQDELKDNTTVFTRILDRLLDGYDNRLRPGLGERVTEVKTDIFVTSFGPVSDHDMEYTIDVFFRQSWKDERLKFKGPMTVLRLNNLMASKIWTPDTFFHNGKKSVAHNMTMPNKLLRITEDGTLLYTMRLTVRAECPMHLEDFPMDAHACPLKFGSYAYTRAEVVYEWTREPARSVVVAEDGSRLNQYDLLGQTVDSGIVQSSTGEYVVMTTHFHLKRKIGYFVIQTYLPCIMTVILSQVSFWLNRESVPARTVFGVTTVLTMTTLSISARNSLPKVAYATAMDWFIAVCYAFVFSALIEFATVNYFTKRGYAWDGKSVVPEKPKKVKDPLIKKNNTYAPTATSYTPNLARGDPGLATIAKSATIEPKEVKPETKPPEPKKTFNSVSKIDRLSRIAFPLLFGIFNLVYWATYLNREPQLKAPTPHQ
# T2 sequence (P47870 26-512): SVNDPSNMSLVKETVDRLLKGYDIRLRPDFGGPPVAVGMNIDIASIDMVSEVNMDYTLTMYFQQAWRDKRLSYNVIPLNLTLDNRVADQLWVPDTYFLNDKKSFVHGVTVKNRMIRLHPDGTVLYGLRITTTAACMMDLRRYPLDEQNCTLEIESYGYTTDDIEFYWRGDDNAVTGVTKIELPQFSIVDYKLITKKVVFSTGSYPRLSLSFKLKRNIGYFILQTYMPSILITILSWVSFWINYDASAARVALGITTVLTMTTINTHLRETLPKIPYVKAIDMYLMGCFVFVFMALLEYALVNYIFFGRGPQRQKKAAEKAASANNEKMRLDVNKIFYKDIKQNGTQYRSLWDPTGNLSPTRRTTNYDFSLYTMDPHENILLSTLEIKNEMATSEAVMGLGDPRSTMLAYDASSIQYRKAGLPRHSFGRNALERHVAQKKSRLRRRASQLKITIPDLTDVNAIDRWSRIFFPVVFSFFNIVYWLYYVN
# T2 sequence (P18507 40-475 partner): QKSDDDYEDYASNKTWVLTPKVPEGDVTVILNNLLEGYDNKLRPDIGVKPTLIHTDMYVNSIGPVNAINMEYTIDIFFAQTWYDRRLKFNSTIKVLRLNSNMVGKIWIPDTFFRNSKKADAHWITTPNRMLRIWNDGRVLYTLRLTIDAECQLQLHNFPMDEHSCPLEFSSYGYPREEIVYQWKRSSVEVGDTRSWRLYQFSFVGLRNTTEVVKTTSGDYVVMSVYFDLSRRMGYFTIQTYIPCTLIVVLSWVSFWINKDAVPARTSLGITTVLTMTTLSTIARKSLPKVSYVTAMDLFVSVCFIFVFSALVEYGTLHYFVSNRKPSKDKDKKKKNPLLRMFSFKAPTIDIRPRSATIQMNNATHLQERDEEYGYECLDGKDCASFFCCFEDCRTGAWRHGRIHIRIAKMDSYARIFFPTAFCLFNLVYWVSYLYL
SMILES,Emax at 10 µM [1] [%],Emax at 10 µM [2] [%],IC50 [3] [nM]
COC[C@]12CC[C@@](C)(O)C[C@@H]1CC[C@H]1[C@@H]3CC[C@H](C(=O)Cn4nnc5cccc(Cl)c54)[C@@]3(C)CC[C@@H]12 [Compound 59],500 to 1000,500 to 1000,10 to 50
COC[C@]12CC[C@@](C)(O)C[C@@H]1CC[C@H]1[C@@H]3CC[C@H](C(=O)Cn4nnc5ccc(OC)c(OC)c54)[C@@]3(C)CC[C@@H]12 [Compound 62],1000 to 1500,500 to 1000,10 to 50
COC[C@]12CC[C@@](C)(O)C[C@@H]1CC[C@H]1[C@@H]3CC[C@H](C(=O)Cn4nc5ccc(OC)c(OC)c5n4)[C@@]3(C)CC[C@@H]12 [Compound 64],500 to 1000,1000 to 1500,10 to 50
COC[C@]12CC[C@@](C)(O)C[C@@H]1CC[C@H]1[C@@H]3CC[C@H](C(=O)Cn4nnc5c(OC)cc(OC)cc54)[C@@]3(C)CC[C@@H]12 [Compound 66],1000 to 1500,50 to 500,10 to 50
COC[C@]12CC[C@@](C)(O)C[C@@H]1CC[C@H]1[C@@H]3CC[C@H](C(=O)Cn4ncc5ncc(Br)cc54)[C@@]3(C)CC[C@@H]12 [Compound 67],500 to 1000,50 to 500,10 to 50
COC[C@]12CC[C@@](C)(O)C[C@@H]1CC[C@H]1[C@@H]3CC[C@H](C(=O)Cn4cc5ncc(Cl)cc5n4)[C@@]3(C)CC[C@@H]12 [Compound 68],1000 to 1500,50 to 500,10 to 50
COC[C@]12CC[C@@](C)(O)C[C@@H]1CC[C@H]1[C@@H]3CC[C@H](C(=O)Cn4ncc5ncc(Cl)cc54)[C@@]3(C)CC[C@@H]12 [Compound 69],1000 to 1500,500 to 1000,10 to 50
CCOC[C@]12CC[C@@](C)(O)C[C@@H]1CC[C@H]1[C@@H]3CC[C@H](C(=O)Cn4nnc5ccc(Cl)cc54)[C@@]3(C)CC[C@@H]12 [Compound 70],1000 to 1500,50 to 500,50 to 100
CCOC[C@]12CC[C@@](C)(O)C[C@@H]1CC[C@H]1[C@@H]3CC[C@H](C(=O)Cn4nnc5cc(Cl)ccc54)[C@@]3(C)CC[C@@H]12 [Compound 71],1000 to 1500,50 to 500,10 to 50
CCOC[C@]12CC[C@@](C)(O)C[C@@H]1CC[C@H]1[C@@H]3CC[C@H](C(=O)Cn4nc5ccc(Cl)cc5n4)[C@@]3(C)CC[C@@H]12 [Compound 72],1000 to 1500,50 to 500,10 to 50
COC[C@]12CC[C@@](C)(O)C[C@H]1CC[C@H]1[C@@H]3CC[C@H](C(=O)Cn4nnc5c(F)cccc54)[C@@]3(C)CC[C@@H]12 [Compound 82],500 to 1000,500 to 1000,
COC[C@]12CC[C@@](C)(O)C[C@@H]1CC[C@H]1[C@@H]3CC[C@H](C(=O)Cn4cc5ccc(F)cc5n4)[C@@]3(C)CC[C@@H]12 [Compound 111],,500 to 1000,50 to 100
COC[C@]12CC[C@@](C)(O)C[C@@H]1CC[C@H]1[C@@H]3CC[C@H](C(=O)Cn4ncc5ccc(Cl)cc54)[C@@]3(C)CC[C@@H]12 [Compound 112],,50 to 500,50 to 100
